Results taken from patent publication US20260133203A1, “DETECTION OF FUMARATE-DERIVED MODIFICATION IN A TEST SAMPLE” (UNIVERSITY OF SOUTH CAROLINA, priority 2017, published 2026).
Structures can show the parent of a compound that is named as a salt.

Tested on: N1E-115 neuroblastoma cells differentiated to a neuronal phenotype
Experiment: Western blot detection of succinated proteins with anti-2SC antibody after KOH hydrolysis of the ester
Assay type: cell-based, mouse
Details: DMF for 24 hours, hydrolysis of the ester in the presence of KOH
Procedure: N1E-115 cells (subclone N1E-115-1 neuroblastoma cells) were obtained from Sigma (08062511, St. Louis, MO). The cells were grown and expanded in non-differentiation medium (NDM): 90% DMEM (Gibco™, Grand Island, NY) with 25 mM glucose, no pyruvate, 25 mM HEPES, 4 mM glutamine and 10% fetal bovine serum (FBS, Atlanta Biologicals, Atlanta, GA). At 80% confluence, the cells were differentiated into neurons in the presence of 2% FBS and 1.25% dimethyl sulfoxide in DMEM for 5 days. In addition to the assessment of the neuronal phenotype by light microscopy, the detection of synaptophysin protein levels was used to confirm successful differentiation. During the final 6 or 24 hours of differentiation, the cells were treated with 10-100 µM DMF and harvested as described above for primary neurons, with the addition of phosphatase inhibitors to the DPBS washes and the RIPA buffer used for scraping to prevent dephosphorylation of CRMP-2. […] To ensure that the succinated proteins detected were solely of neuronal origin, N1E-115 neuroblastoma cells were differentiated to a neuronal phenotype (confirmed by increased synaptophysin content) and treated with DMF for 24 hours. […]

With `COC(=O)/C=C/C(=O)OC` [DMF, dimethyl fumarate] the “detection of succinated proteins using the anti-2SC antibody” value was “detection of a large number of succinated proteins”.
